Data on nine compounds can be found in patent US20250163038A1, “CBL-B MODULATORS AND USES THEREOF” (Nimbus Clio, Inc., priority 2021, published 2025).

Test [1] relates to Jurkat (clone E6-1) cells with NFAT luciferase reporter. The experiment in a line: Jurkat reporter assay (NFAT Luciferase). It is filed as cell-based. The following applies: Homo sapiens; Jurkat NFAT luciferase reporter cells, anti-CD3 stimulation, 6 hr; read-out: Jurkat NFAT EC50. A general note: Reporter assays use an easily measured gene product as a stand-in for the process of interest.

The target in test [2] is Recombinant human Cbl-b (aa 36-427) (Homo sapiens, UniProt Q13191). Nature of the test: Cbl-b Biochemical Assay (TR-FRET). The following applies: read-out: TR-FRET hCbl-b IC50.
Sequence of Recombinant human Cbl-b (aa 36-427) (Q13191 36-427): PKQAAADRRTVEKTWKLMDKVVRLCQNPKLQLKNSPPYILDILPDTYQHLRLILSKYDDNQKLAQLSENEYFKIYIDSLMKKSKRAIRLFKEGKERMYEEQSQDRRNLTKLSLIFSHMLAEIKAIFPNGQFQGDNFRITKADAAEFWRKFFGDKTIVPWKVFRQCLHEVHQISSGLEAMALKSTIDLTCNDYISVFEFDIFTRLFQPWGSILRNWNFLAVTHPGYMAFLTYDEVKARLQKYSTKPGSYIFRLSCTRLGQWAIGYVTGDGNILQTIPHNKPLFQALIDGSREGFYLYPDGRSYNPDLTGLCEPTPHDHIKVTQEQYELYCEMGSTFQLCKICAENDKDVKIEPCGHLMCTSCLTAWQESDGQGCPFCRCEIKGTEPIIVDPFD
The target of test [3] is T1, Recombinant human c-Cbl (aa 47-435) (Homo sapiens, UniProt P22681).
T1 sequence (P22681 47-435): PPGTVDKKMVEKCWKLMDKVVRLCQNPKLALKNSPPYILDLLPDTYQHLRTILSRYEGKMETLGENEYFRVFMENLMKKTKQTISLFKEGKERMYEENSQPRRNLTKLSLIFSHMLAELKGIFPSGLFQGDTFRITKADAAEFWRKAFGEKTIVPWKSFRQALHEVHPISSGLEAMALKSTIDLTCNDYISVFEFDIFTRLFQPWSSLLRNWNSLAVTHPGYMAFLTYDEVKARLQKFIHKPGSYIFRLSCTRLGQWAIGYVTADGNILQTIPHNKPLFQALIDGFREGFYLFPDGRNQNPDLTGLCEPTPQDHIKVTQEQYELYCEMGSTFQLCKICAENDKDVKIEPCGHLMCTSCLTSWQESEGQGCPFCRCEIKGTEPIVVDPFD
The experiment in a line: c-Cbl Biochemical Assay (TR-FRET). The following applies: hc-Cbl Biochemical Assay (TR-FRET); read-out: TR-FRET hcCbl IC50. In general terms: In TR-FRET formats the signal depends on donor and acceptor labels being close together.

Usually EC50 stands for the midpoint of the concentration-response curve. The term IC50 denotes the concentration at which inhibition is half-maximal.

As for `Cn1cnnc1-c1cc(F)ccc1-c1cc(-c2nc3cc(CN4CC(F)C4)cc(F)c3o2)nc(C2CC2)c1` [AFP-3, 2-{6-Cyclopropyl-4-[4-fluoro-2-(4-methyl-1,2,4-triazol-3-yl)phenyl]pyridin-2-yl}-7-fluoro-5-[(3-fluoroazetidin-1-yl)methyl]-1,3-benzoxazole], the half-maximal effective concentration (EC50) in test [1] fell in the range of 1000 to 10000 nM. The values for the IC50 in test [2] and in test [3] were 1000 to 10000 nM and 200 to 1000 nM, respectively.
With `CCNc1cc(-c2ccccc2-c2nncn2C)cc(-c2nc3cc(CN4CCC5(CC5)C4)cc(C(F)(F)F)c3[nH]2)n1` [AAG-4, 6-(6-{5-Azaspiro[2.4]heptan-5-ylmethyl}-4-(trifluoromethyl)-3H-1,3-benzodiazol-2-yl)-N-ethyl-4-[2-(4-methyl-1,2,4-triazol-3-yl)phenyl]pyridin-2-amine], the concentration for a half-maximal effect (EC50) in test [1] fell in the range of 1000 to 10000 nM. In addition, the results for the half-maximal inhibitory concentration (IC50) in test [2] and in test [3] were 200 to 1000 nM and 10000 to 50000 nM, respectively.
Taken in the same sequence, the figures for `Cn1cnnc1-c1cc(F)ccc1-c1cc(-c2nc3cc(CNCC4(O)CCC4)cc(C(F)(F)F)c3o2)cc(C2CC2)c1` [JS-1, 1-((((2-(5-Cyclopropyl-4′-fluoro-2′-(4-methyl-4H-1,2,4-triazol-3-yl)-[1,1′-biphenyl]-3-yl)-7-(trifluoromethyl)benzo[d]oxazol-5-yl)methyl)amino)methyl)cyclobutan-1-ol] were less than 200 nM, less than 200 nM and less than 200 nM.
The matching figures for `Cn1cnnc1-c1cc(F)ccc1-c1cccc(-c2nc3cc(CN4CCC5(CC5)C4)cc(C(F)(F)F)c3o2)c1` [AAL-5, 5-((5-Azaspiro[2.4]heptan-5-yl)methyl)-2-(4′-fluoro-2′-(4-methyl-4H-1,2,4-triazol-3-yl)-[1,1′-biphenyl]-3-yl)-7-(trifluoromethyl) benzo[d]oxazole]: 1000 to 10000 nM, less than 200 nM and 1000 to 10000 nM.
With `Cn1cnnc1-c1cc(F)ccc1-c1cccc(-c2nc3cc(CNCC4CCC4)cc(C(F)(F)F)c3o2)c1` [EM-2, 1-Cyclobutyl-N-((2-(4′-fluoro-2′-(4-methyl-4H-1,2,4-triazol-3-yl)-[1,1′-biphenyl]-3-yl)-7-(trifluoromethyl)benzo[d]oxazol-5-yl)methyl)methanamine], the EC50 in test [1] was less than 200 nM. In addition, the IC50 in test [2] and in test [3] was less than 200 nM throughout.
In the case of `Cn1cnnc1-c1cc(F)ccc1-c1cccc(-c2nc3cc(CNCC4(C)CCC4)cc(C(F)(F)F)c3o2)c1` [HK-2, 1-(2-(4′-Fluoro-2′-(4-methyl-4H-1,2,4-triazol-3-yl)-[1,1′-biphenyl]-3-yl)-7-(trifluoromethyl)benzo[d]oxazol-5-yl)-N-((1-methylcyclobutyl)methyl)methanamine], the concentration giving a half-maximal response (EC50) in test [1] is less than 200 nM. The IC50 in test [2] and in test [3] was less than 200 nM in each case.
As for `Cn1cnnc1-c1cc(F)ccc1-c1cccc(-c2nc3cc(CN4CC[C@@H](C#N)C4)cc(C(F)(F)F)c3o2)c1` [DR-2, (R)-1-((2-(4′-Fluoro-2′-(4-methyl-4H-1,2,4-triazol-3-yl)-[1,1′-biphenyl]-3-yl)-7-(trifluoromethyl)benzo[d]oxazol-5-yl)methyl)pyrrolidine-3-carbonitrile], in test [1], the EC50 lay within 200 to 1000 nM. Moreover, the IC50 in test [2] and in test [3] was less than 200 nM in each case.
On to `CCOCCNCc1cc(C(F)(F)F)c2oc(-c3cccc(-c4ccc(F)cc4-c4nncn4C)c3)nc2c1` [FI-2, 2-Ethoxy-N-((2-(4′-fluoro-2′-(4-methyl-4H-1,2,4-triazol-3-yl)-[1,1′-biphenyl]-3-yl)-7-(trifluoromethyl)benzo[d]oxazol-5-yl)methyl)ethan-1-amine], for which, in test [1], the EC50 was less than 200 nM. In addition, the half-inhibitory concentration (IC50) in test [2] and in test [3] was less than 200 nM each time.
Consider `C[C@@H](O)CNCc1cc(C(F)(F)F)c2oc(-c3cccc(-c4ccc(F)cc4-c4nncn4C)c3)nc2c1` [AL-2, (R)-1-(((2-(4′-Fluoro-2′-(4-methyl-4H-1,2,4-triazol-3-yl)-[1,1′-biphenyl]-3-yl)-7-(trifluoromethyl)benzo[d]oxazol-5-yl)methyl)amino)propan-2-ol], for which the EC50 in test [1] lay within 200 to 1000 nM. The IC50 in test [2] was less than 200 nM; in test [3], 1000 to 10000 nM.
